Converted amounts (≈) assume the structure as drawn.
What was measured:
S. aureus = test: Antibacterial susceptibility testing, IC90 determination with 10% human serum (STA + 10% HS); assay type: cell-based, Staphylococcus aureus; details: Staphylococcus aureus, human serum at final concentration of 10%, read-out: STA + 10% HS (361.169) IC90
Outline: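 Broth microdilution in Mueller-Hinton broth with 10% human serum, 5×10^5 CFU/ml S. aureus, two-fold compound dilutions (typically 63 to 0.49 μM), 1.25% DMSO, 16-20 h at 35° C. Growth read fluorometrically with resazurin (ex 540/em 590 nm); IC90 in μg/ml is the 90% growth-inhibitory concentration.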

[1] = Thermodynamic solubility (pH solubility profiling); assay type: physicochemical; details: thermodynamic from solid
Experimental: The pH solubility profiling was carried out at ambient temperature for a period of 4 days. A saturation solubility study was carried out in order to determine maximum solubility in a particular buffer solution. The compound was added to respective buffer solution until saturation point is reached. This was followed by shaking the flask for 4 days at ambient temperature. After 4 days, the solutions were filtered and injected on UPLC and the concentration was determined using a generic HPLC method.

[2] = In vivo pharmacokinetic and oral bioavailability in mouse; parameters: species or system male Swiss mice
Experimental: The in vivo pharmacokinetics and oral bioavailability of the compound of the examples were/are investigated in male Swiss mice (fed) following single intravenous (i.v.) bolus and oral (p.o.) administration. For the i.v. and p.o. solution formulations, the compound was/is dissolved in a 20% HP-β-CD solution. The pH of the formulations was/is around pH 4. All i.v. formulations were isotonic.

[3] = male, Swiss, plasma, iv, 2.5 mg/kg, 20% HP-β-cyclodextrin
[4] = male, Swiss, plasma, po, 10 mg/kg, 20% HP-β-cyclodextrin

**Q.** With `O=C1CNCc2cc(/C=C/C(=O)N3CC4C=C(c5nccs5)CC4C3)cnc2N1` (centres unmarked) [compound 48] as the compound, how does the IC90 (S. aureus) read?
**A.** Its IC90 is 0.21 µg/mL.

**Q.** And the solubility thermodynamic at 4 days ([1]; aqueous buffer, Buffer pH 4, ambient temperature)?
**A.** Its solubility thermodynamic at 4 days is 440 µg/mL (≈ 1.08 mM).

**Q.** What about the solubility thermodynamic at 4 days ([1]; aqueous buffer, Buffer pH 7.4, ambient temperature) of the same compound?
**A.** Its solubility thermodynamic at 4 days is > 1220 µg/mL.

**Q.** What about the solubility thermodynamic at 4 days ([1]; aqueous with cosolvent or surfactant or cyclodextrin, 10% HP-β-CD buffer pH 4, ambient temperature) of the same compound?
**A.** The solubility thermodynamic at 4 days was > 2470 µg/mL.

**Q.** And the solubility thermodynamic at 4 days ([1]; aqueous with cosolvent or surfactant or cyclodextrin, 10% HP-β-CD buffer pH 7.4, ambient temperature)?
**A.** Its solubility thermodynamic at 4 days is > 1380 µg/mL.

**Q.** And the solubility thermodynamic at 4 days ([1]; aqueous with cosolvent or surfactant or cyclodextrin, 20% HP-β-CD buffer pH 4, ambient temperature)?
**A.** Its solubility thermodynamic at 4 days is > 4720 µg/mL.

**Q.** And the solubility thermodynamic at 4 days ([1]; aqueous with cosolvent or surfactant or cyclodextrin, 20% HP-β-CD buffer pH 7.4, ambient temperature)?
**A.** Its solubility thermodynamic at 4 days is > 2410 µg/mL.

**Q.** What about the solubility thermodynamic at 4 days ([1]; pH 2, simulated gastric fluid, 0.01N HCl, ambient temperature) of the same compound?
**A.** Its solubility thermodynamic at 4 days is > 2560 µg/mL.

**Q.** What about the Vdz ([2]; i.v., 2.5 mg/kg, 20% HP-β-cyclodextrin) of the same compound?
**A.** The Vdz was 2.8 L/kg.

**Q.** What about the AUC(0-inf) [2, 3] of the same compound?
**A.** Its AUC(0-inf) is 1600 ng·h/mL.

**Q.** And the C0 [2, 3]?
**A.** The C0 was 4560 ng/mL.

**Q.** And the half-life ([2]; male, Swiss, plasma, iv, 2.5 mg/kg, 20% HP-β-cyclodextrin, read-out: Half life (t1/2) (converted))?
**A.** The half-life was 1.2 h.

**Q.** What about the clearance ([2]; male, Swiss, plasma, iv, 2.5 mg/kg, 20% HP-β-cyclodextrin, read-out: Plasma clearance Cl (converted)) of the same compound?
**A.** The clearance was 26.7 mL/min/kg.

**Q.** And the AUC(0-inf) [2, 4]?
**A.** Its AUC(0-inf) is 2050 ng·h/mL.

**Q.** What about the Cmax [2, 4] of the same compound?
**A.** Its Cmax is 483 ng/mL.

**Q.** What about the Tmax [2, 4] of the same compound?
**A.** The Tmax was 1.3 h.

**Q.** And the bioavailability ([2]; male, Swiss, plasma, po, p.o. 10 mg/kg vs i.v. 2.5 mg/kg)?
**A.** The bioavailability was 32%.
